Assay results from patent US20060069132A1, “Azolecarboxamide herbicides” (priority 2004, published 2006).

Key:
[1] = test system: barnyardgrass; assay: Test B pre-/postemergence herbicide test; type: in vivo, Echinochloa crus-galli; conditions: for Plant response rating (0 to 100 scale), Barnyardgrass: 0 is no effect; for Barnyardgrass plant response rating: postemergence
Outline: (§1)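 Greenhouse pot assay with simultaneous preemergence (treated seed) and postemergence (2–18 cm seedlings) applications of surfactant-containing, non-phytotoxic solvent formulations. Response scored visually 13–15 days later on a 0–100 scale, 100 meaning complete control.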

[2] = test system: Surinam grass; assay: Test B pre-/postemergence herbicide test; type: in vivo, Urochloa decumbens; conditions: for Plant response rating (0 to 100 scale), Surinam Grass: 0 is no effect
Outline: (§2)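 Flooded paddy rice and barnyardgrass were treated at the 2-leaf stage; upland plantings received compound either on sown seed or on 1- to 4-leaf seedlings. All were kept 13–15 days in a greenhouse and scored visually, 0–100, relative to untreated plants.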

[3] = test system: cocklebur; assay: Test B pre-/postemergence herbicide test; type: in vivo, Xanthium strumarium; conditions: for Plant response rating (0 to 100 scale), Cocklebur: 0 is no effect; for Cocklebur plant response rating: postemergence
Outline: as §1

[4] = test system: corn; assay: Test B pre-/postemergence herbicide test; type: in vivo, Zea mays; conditions: for Plant response rating (0 to 100 scale), Corn: 0 is no effect; for Corn plant response rating: postemergence
Outline: as §2

[5] = test system: large crabgrass; assay: Test B pre-/postemergence herbicide test; type: in vivo, Digitaria sanguinalis; conditions: for Crabgrass, Large plant response rating: postemergence
Outline: as §2

[6] = test system: giant foxtail; assay: Test B pre-/postemergence herbicide test; type: in vivo, Setaria faberi; conditions: for Plant response rating (0 to 100 scale), Foxtail, Giant: 0 is no effect; for Foxtail, Giant plant response rating: postemergence
Outline: as §2

[7] = test system: lambsquarters; assay: Test B pre-/postemergence herbicide test; type: in vivo, Chenopodium album; conditions: for Plant response rating (0 to 100 scale), Lambsquarters: 0 is no effect
Outline: as §2

[8] = test system: morningglory; assay: Test B pre-/postemergence herbicide test; type: in vivo, Ipomoea coccinea; conditions: for Plant response rating (0 to 100 scale), Morningglory: 0 is no effect
Outline: as §1

[9] = test system: pigweed; assay: Test B pre-/postemergence herbicide test; type: in vivo, Amaranthus retroflexus; conditions: for Plant response rating (0 to 100 scale), Pigweed: 0 is no effect
Outline: as §2

[10] = test system: velvetleaf; assay: Test B pre-/postemergence herbicide test; type: in vivo, Abutilon theophrasti; conditions: for Plant response rating (0 to 100 scale), Velvetleaf: 0 is no effect, preemergence
Outline: as §2

[11] = test system: blackgrass; assay: Test B postemergence herbicide test; type: in vivo, Alopecurus myosuroides; conditions: postemergence
Outline: (§3)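 Greenhouse test; postemergence application to plants at 1–4 leaves (2–18 cm); paddy species at 2 leaves; evaluated visually vs controls at 13–15 days; scale 0–100 (100 = complete control).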

[12] = test system: wheat; assay: Test B postemergence herbicide test; type: in vivo, Triticum aestivum; set-up: key to Wheat plant response rating: 0 = no effect, 100 = complete control
Outline: (§4)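 Each value is a visual 0–100 response rating taken against controls 13 to 15 days after treatment in the greenhouse. Plants received formulated chemical postemergence at the 1- to 4-leaf stage or, in flooded paddy, at the 2-leaf stage.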

[13] = test system: wild oat; assay: Test B postemergence herbicide test; type: in vivo, Avena fatua
Outline: as §4

[14] = test system: rice; assay: Test B flooded paddy test; type: in vivo, Oryza sativa; conditions: 1000 g ai/ha, scale 0 to 100 (0 no effect, 100 complete control)
Outline: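 After treating 2-leaf paddy plants or 2–18 cm postemergence plants (1 to 4 leaves) with formulated chemical, researchers kept them in a greenhouse for 13–15 days. Effects were judged visually versus controls: 0 indicates none, 100 total control.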

[15] = test system: small flower umbrella sedge; assay: Test B flooded paddy test; type: in vivo, Cyperus difformis; conditions: 1000 g ai/ha, scale 0 to 100 (0 no effect, 100 complete control)
Outline: as §3

[16] = test system: ducksalad; assay: Test B flooded paddy test; type: in vivo, Heteranthera limosa; conditions: 1000 g ai/ha, scale 0 to 100 (0 no effect, 100 complete control)
Outline: as §3

[17] = test system: barnyardgrass; assay: Test B flooded paddy test; type: in vivo, Echinochloa crus-galli; conditions: 1000 g ai/ha, scale 0 to 100 (0 no effect, 100 complete control)
Outline: as §3

[18] = test system: rice; assay: Test C flooded paddy test; type: in vivo, Oryza sativa; conditions: for Plant response rating, Rice: 500 g ai/ha, visual rating after 12 to 14 days
Outline: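 Postemergence sprays applied to plants 2 to 18 cm tall (1- to 4-leaf stage); paddy species grown to 2-leaf stage under flooding. After 12 to 14 days in greenhouse, visual rating versus untreated controls on 0–100 scale (0 no effect, 100 complete control).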

[19] = test system: smallflower umbrella sedge; assay: Test C flooded paddy test; type: in vivo, Cyperus difformis; conditions: for Plant response rating, Sedge, Umbrella: 500 g ai/ha, visual rating after 12 to 14 days
[20] = test system: ducksalad; assay: Test C flooded paddy test; type: in vivo, Heteranthera limosa; conditions: for Plant response rating, Ducksalad: 500 g ai/ha, visual rating after 12 to 14 days
[21] = test system: barnyardgrass; assay: Test C flooded paddy test; type: in vivo, Echinochloa crus-galli; conditions: for Plant response rating, Barnyardgrass: 500 g ai/ha, visual rating after 12 to 14 days
Outline: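 Ratings (0 = no effect, 100 = complete control) come from visual comparison with untreated plants after 12 to 14 days in the greenhouse. Treatment was postemergence at the 1- to 4-leaf stage (2–18 cm), or at the 2-leaf stage for the flooded paddy barnyardgrass.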

[22] = 125 g ai/ha, 100 is complete control, preemergence
[23] = 125 g ai/ha, visual rating, scale 0 (no effect) to 100 (complete control)
[24] = 500 g ai/ha, visual rating, 0 = no effect, 100 = complete control, preemergence
[25] = 500 g ai/ha, scale 0 to 100, 0 is no effect, 100 is complete control
[26] = 125 g ai/ha, visual rating, scale 0 (no effect) to 100 (complete control), postemergence
[27] = postemergence, 500 g ai/ha, scale 0 to 100, 0 is no effect, 100 is complete control
[28] = 125 g ai/ha, 100 is complete control
[29] = 125 g ai/ha, scale 0 to 100 (0 no effect, 100 complete control)
[30] = 250 g ai/ha, scale of 0 to 100, 0 is no effect, 100 is complete control
[31] = scale 0 to 100 (0 no effect, 100 complete control)
[32] = 62 g ai/ha, scale 0 to 100 (0 no effect, 100 complete control)
[33] = Postemergence, 500 g ai/ha, scale 0 (no effect) to 100 (complete control)

CCNC(=O)c1cccc(NC(=O)c2nn(C(C)C)nc2CC)c1 [Compound 357]
Plant response rating (0 to 100 scale), Barnyardgrass [1, 22]: 30
Barnyardgrass plant response rating [1, 23]: 0
Plant response rating, Barnyardgrass [1, 24]: 80
Barnyardgrass plant response rating [1, 25]: 10
Plant response rating (0 to 100 scale), Surinam Grass [2, 22]: 30
Surinam Grass plant response rating [2, 26]: 10
Plant response rating, Surinam Grass [2, 24]: 80
Surinam Grass plant response rating [2, 27]: 20
Plant response rating (0 to 100 scale), Cocklebur [3, 22]: 0
Cocklebur plant response rating [3, 23]: 10
Plant response rating, Cocklebur [3, 24]: 30
Cocklebur plant response rating [3, 25]: 20
Plant response rating (0 to 100 scale), Corn [4, 22]: 0
Corn plant response rating [4, 23]: 0
Plant response rating, Corn [4, 24]: 80
Corn plant response rating [4, 25]: 20
Plant response rating (0 to 100 scale), Crabgrass, Large ([5]; 125 g ai/ha, 0 is no effect, 100 is complete control, preemergence): 70
Crabgrass, Large plant response rating [5, 23]: 0
Plant response rating, Crabgrass, Large [5, 24]: 100
Crabgrass, Large plant response rating [5, 25]: 10
Plant response rating (0 to 100 scale), Foxtail, Giant [6, 22]: 20
Foxtail, Giant plant response rating [6, 23]: 30
Plant response rating, Foxtail, Giant [6, 24]: 100
Foxtail, Giant plant response rating [6, 25]: 40
Plant response rating (0 to 100 scale), Lambsquarters [7, 22]: 90
Lambsquarters plant response rating [7, 26]: 30
Plant response rating, Lambsquarters [7, 24]: 100
Lambsquarters plant response rating [7, 27]: 60
Plant response rating (0 to 100 scale), Morningglory [8, 22]: 10
Morningglory plant response rating [8, 26]: 10
Plant response rating, Morningglory [8, 24]: 70
Morningglory plant response rating [8, 27]: 30
Plant response rating (0 to 100 scale), Pigweed [9, 22]: 100
Pigweed plant response rating [9, 26]: 20
Plant response rating, Pigweed [9, 24]: 100
Pigweed plant response rating [9, 27]: 40
Plant response rating (0 to 100 scale), Velvetleaf [10, 28]: 0
Velvetleaf plant response rating [10, 26]: 20
Velvetleaf plant response rating [10, 27]: 20
Blackgrass plant response rating [11, 23]: 0
Blackgrass plant response rating [11, 25]: 30
Wheat plant response rating [12, 26]: 0
Wheat plant response rating [12, 27]: 0
Oat, Wild plant response rating [13, 26]: 0
Oat, Wild plant response rating [13, 27]: 30
Rice plant response rating [14]: 70
Sedge, Umbrella plant response rating [15]: 80
Ducksalad plant response rating [16]: 80
Barnyardgrass plant response rating [17]: 70
Rice plant response rating ([18]; 62 g ai/ha, scale 0 to 100): 0
Rice plant response rating [18, 29]: 0
Rice plant response rating [18, 30]: 45
Plant response rating, Rice [18, 31]: 70
Sedge, Umbrella plant response rating ([19]; 62 g ai/ha, scale 0 to 100): 40
Sedge, Umbrella plant response rating [19, 29]: 85
Sedge, Umbrella plant response rating [19, 30]: 90
Plant response rating, Sedge, Umbrella [19, 31]: 95
Ducksalad plant response rating ([20]; 62 g ai/ha, scale 0 to 100): 30
Ducksalad plant response rating [20, 29]: 30
Ducksalad plant response rating [20, 30]: 45
Plant response rating, Ducksalad [20, 31]: 95
Barnyardgrass plant response rating [21, 32]: 0
Barnyardgrass plant response rating [21, 29]: 0
Barnyardgrass plant response rating [21, 30]: 30
Plant response rating, Barnyardgrass [21, 31]: 55

Cc1nn(C(C)(C)C)nc1C(=O)Nc1cc(C(=O)N(C)C)ccc1F [Compound 378]
Plant response rating (0 to 100 scale), Barnyardgrass [1, 22]: 30
Barnyardgrass plant response rating [1, 23]: 0
Barnyardgrass plant response rating [1, 25]: 0
Plant response rating (0 to 100 scale), Surinam Grass [2, 22]: 0
Surinam Grass plant response rating [2, 26]: 10
Surinam Grass plant response rating [2, 33]: 20
Plant response rating (0 to 100 scale), Cocklebur [3, 22]: 0
Cocklebur plant response rating [3, 23]: 0
Cocklebur plant response rating [3, 25]: 0
Plant response rating (0 to 100 scale), Corn [4, 22]: 30
Corn plant response rating [4, 23]: 0
Corn plant response rating [4, 25]: 10
Crabgrass, Large plant response rating [5, 23]: 0
Crabgrass, Large plant response rating [5, 25]: 10
Plant response rating (0 to 100 scale), Foxtail, Giant [6, 22]: 30
Foxtail, Giant plant response rating [6, 23]: 0
Foxtail, Giant plant response rating [6, 25]: 30
Plant response rating (0 to 100 scale), Lambsquarters [7, 22]: 90
Lambsquarters plant response rating [7, 26]: 40
Lambsquarters plant response rating [7, 33]: 70
Plant response rating (0 to 100 scale), Morningglory [8, 22]: 0
Morningglory plant response rating [8, 26]: 20
Morningglory plant response rating [8, 33]: 30
Plant response rating (0 to 100 scale), Pigweed [9, 22]: 90
Pigweed plant response rating [9, 26]: 40
Pigweed plant response rating [9, 33]: 70
Plant response rating (0 to 100 scale), Velvetleaf [10, 28]: 50
Velvetleaf plant response rating [10, 26]: 10
Velvetleaf plant response rating [10, 33]: 40
Blackgrass plant response rating [11, 23]: 0
Blackgrass plant response rating [11, 25]: 0
Wheat plant response rating [12, 26]: 0
Wheat plant response rating ([12]; 500 g ai/ha, scale 0 to 100, 0 no effect, 100 complete control, preemergence): 100
Wheat plant response rating [12, 33]: 0
Oat, Wild plant response rating [13, 26]: 0
Oat, Wild plant response rating [13, 33]: 20
Rice plant response rating [14]: 70
Sedge, Umbrella plant response rating [15]: 80
Ducksalad plant response rating [16]: 90
Barnyardgrass plant response rating [17]: 80
Rice plant response rating ([18]; 62 g ai/ha, scale 0 to 100): 0
Rice plant response rating [18, 29]: 10
Rice plant response rating [18, 30]: 30
Plant response rating, Rice [18, 31]: 60
Sedge, Umbrella plant response rating ([19]; 62 g ai/ha, scale 0 to 100): 0
Sedge, Umbrella plant response rating [19, 29]: 15
Sedge, Umbrella plant response rating [19, 30]: 55
Plant response rating, Sedge, Umbrella [19, 31]: 80
Ducksalad plant response rating ([20]; 62 g ai/ha, scale 0 to 100): 0
Ducksalad plant response rating [20, 29]: 0
Ducksalad plant response rating [20, 30]: 20
Plant response rating, Ducksalad [20, 31]: 75
Barnyardgrass plant response rating [21, 32]: 0
Barnyardgrass plant response rating [21, 29]: 0
Barnyardgrass plant response rating [21, 30]: 0
Plant response rating, Barnyardgrass [21, 31]: 50
